# In PMC2365101, “Anti-Inflammatory Activity of (Polyphenolic)-Sulfonates and Their Sodium Salts in Rodents” (Metal-Based Drugs, 1998):
# Target: T1, TNFα high affinity receptors on L929 fibroblasts (Mus musculus, UniProt P25118)
# T1 construct: host or cells: L929 mouse fibroblasts
# T1 sequence (P25118 30-454): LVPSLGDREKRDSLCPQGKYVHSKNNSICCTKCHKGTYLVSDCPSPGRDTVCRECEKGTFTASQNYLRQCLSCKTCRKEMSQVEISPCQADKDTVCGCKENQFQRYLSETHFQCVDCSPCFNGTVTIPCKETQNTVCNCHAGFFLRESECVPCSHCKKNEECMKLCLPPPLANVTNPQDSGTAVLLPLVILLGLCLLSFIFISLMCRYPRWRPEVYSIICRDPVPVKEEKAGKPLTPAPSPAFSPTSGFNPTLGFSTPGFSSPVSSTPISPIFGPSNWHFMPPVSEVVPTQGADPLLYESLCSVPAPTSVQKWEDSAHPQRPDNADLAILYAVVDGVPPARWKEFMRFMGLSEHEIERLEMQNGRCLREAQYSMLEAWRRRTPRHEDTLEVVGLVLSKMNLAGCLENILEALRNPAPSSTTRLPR
# Test: 125I-TNFα binding to high affinity receptors on L929 fibroblasts
# Details: 90 min, N=6
# Source text: Few reports in the literature indicate interaction at these receptor sites other than by peptides or antibodies. […] Blocking these receptors is desirable because the entire inflammation cascade of events is triggered by the early release of TNFa and IL-1. […] Radioisotopes were obtained from New England Nuclear [Dupont, Boston, MA] and substrates and co- factors were obtained from Sigma Chemical Co. [St. Louis, MO]. […] Cell lines were obtained from American Type Culture Collection [Rockville, MD]. In Vivo Tests Anti-inflammatory screen in mice: Male CF male mice weighing 28-32g obtained from Jackson Lab. [Bar Harbor, […]] were used to screen agents at 8 or 16 mg/kg intraperitoneal [I.P.] x 2 administered 3 hr and 30 min prior to administering the irritant, according to Winter's protocol. Evaluation of the induced edema was made by injecting 2% carrageenan in 0.9% saline into the plantar region of the foot. The opposite foot injected with 0.9% isotonic saline was used as a base line. […] Salmonella abortus equi [Lot # 69F4003] […] Drugs from 2 to 16 mg/kg, I.P. were administered 2 hr prior and 2 hr post-injection of the LPS and then subsequently for every 24 hr for the length ofthe animals' lives. Deaths were recorded every 12 hr and continued for 96 hr. […] In vitro TNFa andIL-1 Measurements and Cellular Regulation IC-21 mouse macrophages were maintained in RPMI-1640 + 10% FCS + P/S. After the cells had grown to confluency, E. coli LPS at 10 Ixg/ml was added to the medium. Agents were incubated at 12.5 to 100 µM final concentration for 18 hr. The medium (100 btl) was collected for TNFCt determinations. Interleukin-1 [IL-1] release was determined using P388D1 cells which were maintained in RPMI-1640 + 10% FCS + P/S. The L929 bioassay was used to quantitate the TNF and the IL-1 levels. The L929 mouse fibroblasts were grown in DMEM + 10% FCS + P/S to confluency in 96 well plates and incubated with 100 tl ofmedium from […] or P388D cells after 18 hr. The cells were stained with 0.2% crystal violet in 20% MeOH and read at 580 nm using a Molecular Devices scanner (SOFT-max program). High Affinity Binding to Receptors on L929-106 Cells Two laCi of 125I-TNFct (human recombinant, 30 mCi/tg New England Nuclear) or 125I-IL-1 (70-120[.t Ci/lxg,New England Nuclear) was added to confluency L929 cells for 90 min or 5 hr, […] The cells were washed repeatedly with isotonic saline, pH.7.2 and aliquots counted. Prostaglandin cylcooxygenase activity Mouse J774AI macrophages maintained in Dulbecco's modified Eagle's medium + 15% FCS + P/S. Cells (5 x 106) were incubated with agents (5 to 100 ].tM final concentration) and 3H-arachidonic acid (100 Ci/mol) for 60 min at 37C in a CO2 incubator. The reaction was terminated with 2N HCI, the mixture extracted 2 X with ether, and the organic layer evaporated.
Compound,"TNFα binding, Percent of Control (5 μM)","TNFα binding, Percent of Control (12.5 μM)","TNFα binding, Percent of Control (25 μM)","TNFα binding, Percent of Control (50 μM)"
COc1c2cc(S(=O)(=O)[O-])cc1Cc1cc(S(=O)(=O)[O-])cc(c1OC)Cc1cc(S(=O)(=O)[O-])cc(c1OC)Cc1cc(S(=O)(=O)[O-])cc(c1OC)Cc1cc(S(=O)(=O)[O-])cc(c1OC)Cc1cc(S(=O)(=O)[O-])cc(c1OC)C2.[Na+].[Na+].[Na+].[Na+].[Na+].[Na+] [Compound 6],61 + 5% of Control,39 + 4% of Control,24 + 3% of Control,36 + 5% of Control
CC(=O)Oc1c2cc(S(=O)(=O)[O-])cc1Cc1cc(S(=O)(=O)[O-])cc(c1OC(C)=O)Cc1cc(S(=O)(=O)[O-])cc(c1OC(C)=O)Cc1cc(S(=O)(=O)[O-])cc(c1OC(C)=O)Cc1cc(S(=O)(=O)[O-])cc(c1OC(C)=O)Cc1cc(S(=O)(=O)[O-])cc(c1OC(C)=O)Cc1cc(S(=O)(=O)[O-])cc(c1OC(C)=O)Cc1cc(S(=O)(=O)[O-])cc(c1OC(C)=O)C2.[Na+].[Na+].[Na+].[Na+].[Na+].[Na+].[Na+].[Na+] [Compound 8],59 + 6% of Control,,23 + 4% of Control,37 + 4% of Control
